Source: US20240067693A1, “POLYPEPTIDES AND USES THEREOF” (MEDIMMUNE LIMITED, priority 2020, published 2024)
Numbered stars: 1 amine (or outer) side, 2 acyl side, 3 side chain; on linkers, the order of the positions; unused ones are H or OH. Bridge positions count the residues as written; N and C are the ends. Square brackets hold non-standard residues; d marks the D form. Side chains are listed from the residue outwards. Peptide text beside a SMILES is read from it. * marks the point of attachment. C20 diacid = O=C(O)CCCCCCCCCCCCCCCCCCC(=O)*; C18 diacid = O=C(O)CCCCCCCCCCCCCCCCC(=O)*; γGlu = O=C(O)[C@H](CCC(=O)[*:2])N[*:1]; αMeF = C[C@](N)(Cc1ccccc1)C(=O)O; Dab = NCC[C@H](N)C(=O)O; AEEA = NCCOCCOCC(=O)O; Aib = CC(C)(N)C(=O)O

What was measured:
[1] = target: T1, human amylin receptor (calcitonin receptor co-expressed with receptor activity modifying protein, RAMP3) (hAMYR3) (Homo sapiens, UniProt O60896+P30988); test: cAMP production in 1321N1 cells with stable recombinant expression of human amylin receptor (hAMYR3); format: cell-based; settings: for Ratio (selectivity hAMYR vs hCTR, ratio of EC50 values at the two receptors): EC50 hCTR / EC50 hAMYR3; for EC50: cAMP, 1321N1 cells, assay buffer with 0.1% BSA, read-out: EC50 (pM) hAMYR3
T1 construct: expressed in transfected cells
T1 sequence (P30988 25-474): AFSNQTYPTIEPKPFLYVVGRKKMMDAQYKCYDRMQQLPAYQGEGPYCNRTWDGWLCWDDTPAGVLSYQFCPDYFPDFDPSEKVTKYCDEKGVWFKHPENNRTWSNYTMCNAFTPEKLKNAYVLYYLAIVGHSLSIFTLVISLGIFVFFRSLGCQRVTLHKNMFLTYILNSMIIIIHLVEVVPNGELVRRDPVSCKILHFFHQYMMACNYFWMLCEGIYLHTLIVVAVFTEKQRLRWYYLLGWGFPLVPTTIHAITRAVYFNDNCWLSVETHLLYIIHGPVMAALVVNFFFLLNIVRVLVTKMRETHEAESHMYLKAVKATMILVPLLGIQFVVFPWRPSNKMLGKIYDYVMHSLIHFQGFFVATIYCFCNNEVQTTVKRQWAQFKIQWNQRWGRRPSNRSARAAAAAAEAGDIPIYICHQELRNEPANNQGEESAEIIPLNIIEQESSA
T1 sequence (O60896 24-148 partner): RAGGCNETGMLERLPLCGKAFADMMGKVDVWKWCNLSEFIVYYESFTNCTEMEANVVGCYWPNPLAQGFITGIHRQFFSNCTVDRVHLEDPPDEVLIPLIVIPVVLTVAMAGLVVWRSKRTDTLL
How it was run: (§1)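 Thawed cells in HBSS/0.1% BSA/25 mM HEPES pH 7.4 with 0.5 mM IBMX were incubated with peptides 30 min at room temperature; cAMP read by HTRF. EC50 from 4-parameter fit of % activation relative to maximal amylin or calcitonin effect.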

[2] = target: T2, human calcitonin receptor (hCTR) (Homo sapiens, UniProt P30988); test: cAMP production in 1321N1 cells with stable recombinant expression of human calcitonin receptor (hCTR); format: cell-based; settings: cAMP, 1321N1 cells, assay buffer with 0.1% BSA; read-out: EC50 (pM) hCTR
T2 construct: expressed in transfected cells
T2 sequence (P30988 25-474): T1 sequence (P30988 25-474)
How it was run: as §1

in vivo = settings: male, Sprague-Dawley, rat, 20 nmol/kg
[3] = Thioflavin T fibrillation assay; format: physicochemical; settings: ThT fibrillation assay; peptide 1 mg/mL in 25 mM sodium acetate buffer pH 4.0; 6 days at 37 °C with shaking; >144 h = no increase
Text: Peptide aggregation that form fibrils is an indication of physical instability. Fibril formation in solution poses a significant risk for the stability of injectable peptide drug products. Thioflavin T (ThT) fibrillation assay is a useful tool to assess the aggregation kinetics of a peptide or protein under accelerated and stressed conditions that can be used to forecast the long-term viability of a compound in solution. ThT can selectively bind amyloid fibrils and the resultant complex emits strong fluorescence signal at 482 nm when excited at 450 nm (Anal Biochem. 1989 Mar;177(2):244-9). Monitoring of the change in fluorescence signal is an established method to study the fibril forming potential of peptides and proteins. ThT (purchased from Sigma Aldrich) stock solution is prepared by dissolving the ThT powder in Milli-Q water and filtered to obtain a 0.25 mM solution. The concentration of the solution is measured at 412 nm using an extinction coefficient of 36 mM^−1cm^−1. Test peptides were dissolved at 1 mg/mL in 25 mM sodium acetate buffer pH 4.0. 100 μL aliquot of peptide solution and 5 μL aliquot of ThT solution were placed in a clear bottom black fluorescence 96-well plate. 5 replicates of each test samples were placed in zo the same row of the plate. Buffer was placed in control wells for baseline correction. All empty wells were filled with water to prevent evaporation. The plate was sealed with aluminium seal and placed in fluorescence plate reader and incubated for 6 days at 37 ° C. with intermittent orbital shaking at 500 to 750 rpm. The fluorescence intensity was measured every 30 min using excitation at 444 nm and emission at 480 nm. The fibril forming potential of the test peptides was determined by measuring the average time taken to detect an increase in baseline corrected fluorescence intensity.

Ratio (selectivity hAMYR vs hCTR, ratio of EC50 values at the two receptors) [1]	EC50 [1]	EC50 [2]	half-life (in vivo; iv)	half-life (in vivo; sc)	Time taken to detect increase in fluorescence intensity [3]	SMILES
9	149 pM	1280 pM	6 h	5 h		CC[C@H](C)[C@H](NC(=O)[C@@H]1CCCN1C(=O)CNC(=O)[C@H](Cc1ccccc1)NC(=O)[C@H](CC(N)=O)NC(=O)C(C)(C)NC(=O)[C@H](CO)NC(=O)[C@H](CO)NC(=O)[C@H](Cc1c[nH]cn1)NC(=O)[C@@H](NC(=O)[C@H](CC(C)C)NC(=O)[C@H](Cc1ccccc1)NC(=O)[C@H](CC(N)=O)NC(=O)[C@H](C)NC(=O)[C@H](CC(C)C)NC(=O)[C@H](CCCNC(=N)N)NC(=O)[C@H](CCC(N)=O)NC(=O)[C@@H](NC(=O)[C@H](C)NC(=O)[C@@H]1CSSC[C@H](NC(=O)[C@@H](N)CCCCNC(=O)CC[C@H](NC(=O)CCCCCCCCCCCCCCCCC(=O)O)C(=O)O)C(=O)N[C@@H](CC(N)=O)C(=O)N[C@@H]([C@@H](C)O)C(=O)N[C@@H](C)C(=O)N[C@@H]([C@@H](C)O)C(=O)N1)[C@@H](C)O)C(C)C)C(=O)N[C@@H](CC(C)C)C(=O)N1CCC[C@H]1C(=O)N1CCC[C@H]1C(=O)N[C@H](C(=O)N[C@@H](CC(N)=O)C(=O)N[C@H](C(=O)NCC(=O)N[C@@H](CO)C(=O)N[C@@H](CCCNC(=N)N)C(=O)N[C@H](C(=O)N[C@@H](Cc1ccc(O)cc1)C(N)=O)[C@@H](C)O)C(C)C)[C@@H](C)O [Peptide 64, K(γE-C18diacid)[CNTATC]ATQRLANFLVHSS(Aib)NFGPILPPTNVGSRTY-amide] (H-K([γGlu-C18 diacid])CNTATCATQRLANFLVHSS[Aib]NFGPILPPTNVGSRTY-NH2; disulfide 2-7; N-terminus assumed)
4	770 pM	3190 pM	9.8 h	12.9 h		CC[C@H](C)[C@H](NC(=O)[C@H](C)NC(=O)[C@@H]1CCCN1C(=O)[C@H](Cc1ccccc1)NC(=O)[C@H](CC(N)=O)NC(=O)C(C)(C)NC(=O)[C@H](CO)NC(=O)[C@H](CO)NC(=O)[C@H](Cc1c[nH]cn1)NC(=O)[C@@H](NC(=O)[C@H](CC(C)C)NC(=O)[C@H](Cc1ccccc1)NC(=O)[C@H](CC(N)=O)NC(=O)[C@H](C)NC(=O)[C@H](CC(C)C)NC(=O)[C@H](CCCNC(=N)N)NC(=O)[C@H](CCC(N)=O)NC(=O)[C@@H](NC(=O)[C@H](C)NC(=O)[C@@H]1CSSC[C@H](NC(=O)[C@@H](N)CCCCNC(=O)CC[C@H](NC(=O)CC[C@H](NC(=O)CCCCCCCCCCCCCCCCCCC(=O)O)C(=O)O)C(=O)O)C(=O)N[C@@H](CC(N)=O)C(=O)N[C@@H]([C@@H](C)O)C(=O)N[C@@H](C)C(=O)N[C@@H]([C@@H](C)O)C(=O)N1)[C@@H](C)O)C(C)C)C(=O)N[C@@H](CC(C)C)C(=O)N[C@@H](CO)C(=O)N1CCC[C@H]1C(=O)N[C@H](C(=O)N[C@@H](CC(N)=O)C(=O)N[C@H](C(=O)NCC(=O)N[C@@H](CO)C(=O)N[C@@H](CC(N)=O)C(=O)N[C@H](C(=O)N[C@@H](Cc1ccc(O)cc1)C(N)=O)[C@@H](C)O)C(C)C)[C@@H](C)O [Peptide 117, K(γE-γE-C20diacid)[CNTATC]ATQRLANFLVHSS(Aib)NFPAILSPTNVGSNTY-amide] (H-K([γGlu-γGlu-C20 diacid])CNTATCATQRLANFLVHSS[Aib]NFPAILSPTNVGSNTY-NH2; disulfide 2-7; N-terminus assumed)
23	390 pM	9140 pM			45 h	CC[C@H](C)[C@H](NC(=O)[C@@H]1CCCN1C(=O)CNC(=O)[C@H](Cc1ccccc1)NC(=O)[C@H](CC(N)=O)NC(=O)[C@H](CCN)NC(=O)[C@H](CO)NC(=O)[C@H](CO)NC(=O)[C@H](Cc1c[nH]cn1)NC(=O)[C@@H](NC(=O)[C@H](CC(C)C)NC(=O)[C@H](Cc1ccccc1)NC(=O)[C@H](CC(N)=O)NC(=O)[C@H](C)NC(=O)[C@H](CC(C)C)NC(=O)[C@H](CCCNC(=N)N)NC(=O)[C@H](CCC(N)=O)NC(=O)[C@@H](NC(=O)[C@H](C)NC(=O)[C@@H]1CSSC[C@H](NC(=O)[C@H](CCCCN)NC(=O)[C@@H](N)CCCCNC(=O)CC[C@H](NC(=O)CCCCCCCCCCCCCCCCC(=O)O)C(=O)O)C(=O)N[C@@H](CC(N)=O)C(=O)N[C@@H]([C@@H](C)O)C(=O)N[C@@H](C)C(=O)N[C@@H]([C@@H](C)O)C(=O)N1)[C@@H](C)O)C(C)C)C(=O)N[C@@H](CC(C)C)C(=O)N1CCC[C@H]1C(=O)N1CCC[C@H]1C(=O)N[C@H](C(=O)N[C@@H](CCC(=O)O)C(=O)N[C@H](C(=O)NCC(=O)N[C@@H](CO)C(=O)N[C@@H](CC(N)=O)C(=O)N[C@H](C(=O)N[C@@H](Cc1ccc(O)cc1)C(N)=O)[C@@H](C)O)C(C)C)[C@@H](C)O [Peptide 28, K(γE-C18diacid)K[CNTATC]ATQRLANFLVHSS(Dab)NFGPILPPTEVGSNTY-amide] (H-K([γGlu-C18 diacid])KCNTATCATQRLANFLVHSS[Dab]NFGPILPPTEVGSNTY-NH2; disulfide 3-8; N-terminus assumed)
19	365 pM	7080 pM			>144 h	CC[C@H](C)[C@H](NC(=O)[C@@H]1CCCN1C(=O)CNC(=O)[C@](C)(Cc1ccccc1)NC(=O)[C@H](CC(N)=O)NC(=O)[C@H](CC(N)=O)NC(=O)[C@H](CO)NC(=O)[C@H](CO)NC(=O)[C@H](Cc1c[nH]cn1)NC(=O)[C@H](CCCNC(=N)N)NC(=O)[C@H](CC(C)C)NC(=O)[C@H](Cc1ccccc1)NC(=O)[C@H](CC(N)=O)NC(=O)[C@H](C)NC(=O)[C@H](CC(C)C)NC(=O)[C@H](CCCNC(=N)N)NC(=O)[C@H](CCC(N)=O)NC(=O)[C@@H](NC(=O)[C@H](C)NC(=O)[C@@H]1CSSC[C@H](NC(=O)[C@@H](N)CCCCNC(=O)COCCOCCNC(=O)COCCOCCNC(=O)CC[C@H](NC(=O)CCCCCCCCCCCCCCCCC(=O)O)C(=O)O)C(=O)N[C@@H](CC(N)=O)C(=O)N[C@@H]([C@@H](C)O)C(=O)N[C@@H](C)C(=O)N[C@@H]([C@@H](C)O)C(=O)N1)[C@@H](C)O)C(=O)N[C@@H](CC(C)C)C(=O)N1CCC[C@H]1C(=O)N1CCC[C@H]1C(=O)N[C@H](C(=O)N[C@@H](CCC(=O)O)C(=O)N[C@H](C(=O)NCC(=O)N[C@@H](CO)C(=O)N[C@@H](CC(N)=O)C(=O)N[C@H](C(=O)N[C@@H](Cc1ccc(O)cc1)C(N)=O)[C@@H](C)O)C(C)C)[C@@H](C)O [Peptide 17, K(O2Oc-O2Oc-γE-C18diacid)[CNTATC]ATQRLANFLRHSSNN(αMePhe)GPILPPTEVGSNTY-amide] (H-K([AEEA-AEEA-γGlu-C18 diacid])CNTATCATQRLANFLRHSSNN[αMeF]GPILPPTEVGSNTY-NH2; disulfide 2-7; N-terminus assumed)
